US20250090461A1, “CELL-WALL BINDING PROTEIN SPECIFICALLY TARGETING CUTIBACTERIUM ACNES” (MASSACHUSETTS INSTITUTE OF TECHNOLOGY, priority 2022, published 2025)

Assays:
[1] = tested on: Cutibacterium acnes; assay: Minimum Inhibitory Concentration of benzoyl peroxide on C. acnes; format: cell-based; conditions: OTC product containing 10% BPO used; FIG. 4
From the text: An OTC product containing 10% BPO was used in this experiment.
The advantage of SmartArrow is that it will deliver the active ingredients to where the bacteria reside. As a result, a much lower dosage of bioactive can be loaded in SmartArrow to achieve high killing of the bacteria compared to untargeted liposomes. As little as 0.002% BPO can achieve total killing of C. acnes (FIG. 4). Considering the BPO concentrations found in the retail market ranges from 2.5%-10%, which is ˜1000-fold higher than what is needed to kill the bacteria, it is not surprising to find most users of these retail products routinely suffer several side effects such as dry peeling skin. By using the SmartArrow approach, we can conservatively load 0.02% BPO into a liposome, which is 100× less than the retail products, to achieve total bacterial killing and reducing the side effects to a minimum.

[2] = tested on: Staphylococcus epidermidis strain PCI1200; assay: Confocal microscopy binding of EGFP-tagged lysin to S. epidermidis; conditions: 2.5 mg/ml; FIG. 1 G1-3
Method: (§1) To check the binding spectrum of the engineered lysin SmartNovaC, 2.5 mg/ml of SmartNovaC was applied against four C. acnes strains, Enterococcus faecalis strain OG1 RF, Staphylococcus epidermidis strain PCI1200 and Pseudomonas aeruginosa strain PA14. Since SmartNovaC was cloned in a plasmid that would co-express the EGFP tag, the fluorescent lysin can be visualized using confocal microscopy.

[3] = tested on: Enterococcus faecalis strain OG1 RF; assay: Confocal microscopy binding of EGFP-tagged lysin to E. faecalis; conditions: 2.5 mg/ml; FIG. 1 E1-3
Method: as §1

[4] = tested on: Cutibacterium acnes; assay: Confocal microscopy binding of EGFP-tagged lysin to C. acnes; conditions: 2.5 mg/ml; four C. acnes strains (6919, 11828, 11827, HC038-PAI); FIG. 1
Method: as §1
To further examine whether SmartNovaC is the only lysin that binds specifically to C. acnes, the binding of NovaC and another lysin DukeC2Rap that were synthesized with EGFP co-expressed were tested. DukeC2Rap lysin was obtained as CBD of Doucette lysin targeting Propionibacterium freudenreichii species, which is from the same genus as C. acnes. The nucleotide and amino acid sequences of the DukeC2Rap are provided below.
NovaC and DukeC2Rap at concentrations of 2.5 mg/ml and 1.3 mg/ml, respectively, were tested for binding against two C. acnes strains.

[5] = tested on: Pseudomonas aeruginosa strain PA14; assay: Confocal microscopy binding of EGFP-tagged lysin to P. aeruginosa; conditions: 2.5 mg/ml; FIG. 1 F1-3
Method: as §1

Molecule	BPO concentration achieving total killing of C. acnes (MIC) [1]	binding to S. epidermidis [2]	binding to E. faecalis OG1RF [3]	binding to C. acnes (green fluorescence) [4]	binding to P. aeruginosa PA14 [5]
O=C(OOC(=O)c1ccccc1)c1ccccc1 [BPO, benzoyl peroxide]	0.002%	–	–	–	–
SmartNovaC (GSVNKLHHDVGVVQVQNGDLSKRVDALSWV)	–	could not bind	could not bind	specific binding	could not bind
